In patent publication US20180264121A1, “CANNABINOID-CONTAINING ORAL PHARMACEUTICAL COMPOSITION, METHOD FOR PREPARING AND USING SAME” (PRATI-DONADUZZI & CIA LTDA., priority 2015, published 2018):

Assay: Solubility of the API (quality-control specification)
Type: physicochemical
Source text: Validated Analytical Methodology and Acceptable Limits to Ensure Identity, Quality and Purity of the API.

C=C(C)[C@@H]1CCC(C)=C[C@H]1c1c(O)cc(CCCCC)cc1O [API, cannabidiol]
SOLUBILITY (in chloroform): SOLUBLE | SOLUBILITY (in ethanol 96%): SOLUBLE | SOLUBILITY (in hexane): SLIGHTLY SOLUABLE IN HEXANE | SOLUBILITY (in purified water): INSOLUBLE
